Results reported in patent US12275729B2 (Merck Sharp & Dohme LLC, priority 2017, dated 2025).
pIC50: −log10 of the molar value.

target: IDO1 (Homo sapiens, UniProt P14902); experiment: IDO1 Cellular Assay in HeLa Cells Stimulated with IFNγ; format: cell-based; settings: about 48 hours, read-out: Hela IC50
Experimental: Biological Assays IDO1 Cellular Assay in HeLa Cells Stimulated with IFNγ
HeLa cells were cultured in complete HeLa culture medium (90% EMEM, 10% heat-inactivated fetal bovine serum) and expanded to about 1×10^9 cells. The cells were then collected and frozen down at 1×10^7 cells/vial in 1 mL frozen medium (90% complete HeLa culture medium, 10% DMSO).
Compounds to be tested were serially diluted in ten 3-fold steps in DMSO starting from 10 mM DMSO stocks in Echo low volume plate(s).
Frozen HeLa cells were thawed and transferred into HeLa assay medium (99% complete HeLa culture medium, 1% Pen/Strep) with 20 mL medium/vial of cells. The cells were spun down at 250 g in a table top centrifuge for 5 min and suspended in same volume of HeLa assay medium. The cells were then counted and adjusted to a density of 2×10^5 cells/mL in HeLa assay medium. Sterile L-tryptophan were added to the cells with final concentration of 300 uM L-tryptophan. A small aliquot (2 mL/plate) of HeLa cells were set aside and were not treated with IFNγ, to serve as the Max-E control.
HeLa cells with and without IFNγ were dispensed to the respective wells of 384-well assay plates containing the compounds. The plates were incubated for about 48 hours at a 37° C., 5% CO2 incubator. Afterwards, 12 μL of 0.5 M methyl isonipecotate in dimethyl sulfoxide were added into each well and the plates were sealed and incubated at 37° C. without CO2 overnight. The plates were centrifuged for 1 min at 200×g. The resulting fluorescence was measured in a Spectramax plate reader (Molecular Devices) with a 400 nm excitation filter and a 510 nm emission filter.
Potencies were calculated by […] least squares fit to the four parameter logistic IC50 equation.

Chain of IDO1 (P14902 whole entry): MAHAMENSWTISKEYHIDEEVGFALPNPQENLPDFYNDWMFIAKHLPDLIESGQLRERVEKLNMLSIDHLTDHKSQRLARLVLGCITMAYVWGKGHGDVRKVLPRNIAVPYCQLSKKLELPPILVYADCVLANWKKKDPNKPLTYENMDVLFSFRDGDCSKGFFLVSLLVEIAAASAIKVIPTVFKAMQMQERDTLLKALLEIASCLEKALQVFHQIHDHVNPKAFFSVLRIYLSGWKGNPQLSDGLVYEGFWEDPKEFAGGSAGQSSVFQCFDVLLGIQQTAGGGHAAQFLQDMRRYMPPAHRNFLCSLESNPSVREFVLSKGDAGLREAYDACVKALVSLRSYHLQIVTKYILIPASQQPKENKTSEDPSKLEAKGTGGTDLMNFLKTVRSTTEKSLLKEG

SMILES | pIC50
COC(=O)N1CCCc2nc(C(C)C(=O)Nc3ccc(Cl)cc3)ccc21 (stereo not shown) [Example 221, methyl 6-{1-[(4-chlorophenyl)amino]-1-oxopropan-2-yl}-3,4-dihydro-1,5-naphthyridine-1(2H)-carboxylate] | 7.70
Cc1ccnc(C(=O)N2CCCc3cc(C4(C(=O)Nc5ccc(F)cn5)CCC4)ccc32)n1 [Example 118, N-(5-fluoropyridin-2-yl)-1-[1-(4-methylpyrimidine-2-carbonyl)-1,2,3,4-tetrahydroquinolin-6-yl]cyclobutane-1-carboxamide] | 8.82
O=C(OC1CC1)N1CCc2nc(C3(C(=O)Nc4ccc(F)cc4)CCC3)ccc21 [Example 269, cyclopropyl 5-(1-((4-fluorophenyl)carbamoyl)cyclobutyl) 2,3-dihydro-1H-pyrrolo[3,2-b]pyridine-1-carboxylate] | 8.66
CO[C@@H](C)C(=O)N1CCCc2cc([C@H](C)C(=O)Nc3ccc(F)cc3)ccc21 (single isomer, unassigned) [Example 75] | 7.21
Cc1cc(C(=O)NCc2ccc3c(c2)CCCN3C(=O)c2cccc(Cl)c2)on1 [Example 20, N-{[1-(3-chlorobenzene-1-carbonyl)-1,2,3,4-tetrahydroquinolin-6-yl]methyl}-3-methyl-1,2-oxazole-5-carboxamide] | 7.22
C[C@H](C(=O)Nc1ccc(F)cc1)c1ccc2c(c1)CCCN2C(=O)CC(C)(C)C [Example 90, (2S)-2-[1-(3,3-dimethylbutanoyl)-1,2,3,4-tetrahydroquinolin-6-yl]-N-(4-fluorophenyl)propanamide] | 8.15
CC(NC(=O)c1ccc(F)cc1)c1ccc2c(n1)C(O)CCN2C(=O)C1CC1 (single isomer, unassigned) [Example 198, N-(1-(5-(cyclopropanecarbonyl)-8-hydroxy-5,6,7,8-tetrahydro-1,5-naphthyridin-2-yl)ethyl)-4-fluorobenzamide] | 6.41
CC(C)C(C(=O)Nc1ccc(F)cc1)c1ccc2c(n1)CCCN2C(=O)C1CC1 (stereo not shown) [Example 263, 2-(5-(cyclopropanecarbonyl)-5,6,7,8-tetrahydro-1,5-naphthyridin-2-yl)-N-(4-fluorophenyl)-3-methylbutanamide] | 7.46
C[C@@H](NC(=O)c1ccc(F)cc1)c1ccc2c(c1)CCCN2C(=O)C1(F)CC1 (single isomer, unassigned) [Example 31] | 5.91
CO[C@H]1C[C@H](C(=O)N2CCCc3cc([C@H](C)C(=O)Nc4ccc(F)cc4)ccc32)C1 [Example 86, (2S)-N-(4-fluorophenyl)-2-[1-(trans-3-methoxycyclobutane-1-carbonyl)-1,2,3,4-tetrahydroquinolin-6-yl]propanamide] | 7.75
O=C(c1cocn1)N1CCCc2cc(C3(C(=O)Nc4ccc(F)cn4)CCC3)ccc21 [Example 121, N-(5-fluoropyridin-2-yl)-1-[1-(1,3-oxazole-4-carbonyl)-1,2,3,4-tetrahydroquinolin-6-yl]cyclobutane-1-carboxamide] | 8.39
CC(NC(=O)c1ccc(F)cc1)c1ccc2c(n1)CCCN2C(=O)c1cc(F)ccn1 (stereo not shown) [Example 282, 2-(1-(4-fluorobenzamido)ethyl)-5-(4-fluoropicolinoyl)-5,6,7,8-tetrahydro-1,5-naphthyridin-1-ium 2,2,2-trifluoroacetate] | 8.55
C[C@H](C(=O)Nc1ccc(F)cc1)c1ccc2c(c1)CCCN2C(=O)C1CN(C)CCO1 (stereo partly drawn) [Example 74, (2S)-N-(4-fluorophenyl)-2-[1-(4-methylmorpholine-2-carbonyl)-1,2,3,4-tetrahydroquinolin-6-yl]propanamide] | 6.34
CC(C)n1cc(C(=O)NCc2ccc3c(c2)CCCN3C(=O)c2cccc(Cl)c2)cn1 [Example 19, N-{[1-(3-chlorobenzene-1-carbonyl)-1,2,3,4-tetrahydroquinolin-6-yl]methyl}-1-(propan-2-yl)-1H-pyrazole-4-carboxamide] | 6.36
CC(C(=O)Nc1ccc(F)cc1)c1ccc2c(n1)CCCN2C(=O)C1CCCCO1 (single isomer, unassigned) [Example 159, N-(4-fluorophenyl)-2-[5-(oxane-2-carbonyl)-5,6,7,8-tetrahydro-1,5-naphthyridin-2-yl]propanamide] | 8.82
CC(C)c1cc(C(=O)NCc2ccc3c(c2)CCCN3C(=O)c2cccc(Cl)c2)on1 [Example 18, N-{[1-(3-chlorobenzene-1-carbonyl)-1,2,3,4-tetrahydroquinolin-6-yl]methyl}-3-(propan-2-yl)-1,2-oxazole-5-carboxamide] | 6.73
Cc1nccc(N2CCCc3nc(C4(NC(=O)c5ccc(Cl)cc5)CC4)ccc32)n1 [Example 299, 4-chloro-N-(1-(5-(2-methylpyrimidin-4-yl)-5,6,7,8-tetrahydro-1,5-naphthyridin-2-yl)cyclopropyl)benzamide] | 9.13
CC(C)(C(=O)Nc1ccc(F)cc1)c1ccc2c(n1)CCCN2C(=O)c1cccc(Cl)c1 [Example 188, 2-[5-(3-chlorobenzene-1-carbonyl)-5,6,7,8-tetrahydro-1,5-naphthyridin-2-yl]-N-(4-fluorophenyl)-2-methylpropanamide] | 8.24
CC(NC(=O)c1ccc(F)cc1)c1ccc2c(n1)CCCN2C(=O)C1(C)CCCCO1 (stereo not shown) [Example 136, 4-fluoro-N-{1-[5-(2-methyloxane-2-carbonyl)-5,6,7,8-tetrahydro-1,5-naphthyridin-2-yl]ethyl}benzamide] | 6.27
CCc1nc(C(=O)NCc2ccc3c(c2)CCCN3C(=O)c2cccc(Cl)c2)co1 [Example 23, N-{[1-(3-chlorobenzene-1-carbonyl)-1,2,3,4-tetrahydroquinolin-6-yl]methyl}-2-ethyl-1,3-oxazole-4-carboxamide] | 7.11
CC(C(=O)Nc1ccc(F)cc1)c1ccc2c(c1)CCCN2C(=O)c1cnco1 (stereo not shown) [Example 49, N-(4-fluorophenyl)-2-[1-(1,3-oxazole-5-carbonyl)-1,2,3,4-tetrahydroquinolin-6-yl]propanamide] | 7.52
CC(NC(=O)c1ccc(F)cc1)c1ccc2c(n1)C(F)(F)CCN2C(=O)C1CC1 (single isomer, unassigned) [Example 194, N-(1-(5-(cyclopropanecarbonyl)-8,8-difluoro-5,6,7,8-tetrahydro-1,5-naphthyridin-2-yl)ethyl)-4-fluorobenzamide] | 5.58
CC(C(=O)Nc1ccc(F)cc1)c1ccc2c(c1)CCCN2C(=O)C1(C(F)(F)F)CC1 (stereo not shown) [Example 66, N-(4-fluorophenyl)-2-{1-[1-(trifluoromethyl)cyclopropane-1-carbonyl]-1,2,3,4-tetrahydroquinolin-6-yl}propanamide] | 8.14
O=C(Nc1ccc(F)cc1)C(c1ccc2c(n1)CCCN2C(=O)C1CC1)C1CC1 (stereo not shown) [Example 260, 2-(5-(cyclopropanecarbonyl)-5,6,7,8-tetrahydro-1,5-naphthyridin-2-yl)-2-cyclopropyl-N-(4-fluorophenyl)acetamide] | 7.47
COC(=O)N1CCCc2nc(C3(C(=O)Nc4ccc(Cl)cc4)CCC3)ccc21 [Example 218, methyl 6-{1-[(4-chlorophenyl)carbamoyl]cyclobutyl}-3,4-dihydro-1,5-naphthyridine-1(2H)-carboxylate] | 8.29

same assay, conditions: read-out: Hela IC50

SMILES | pIC50
CC(NC(=O)c1ccc(F)cc1)c1ccc2c(n1)CCCN2c1cc2n(n1)CCC2 (stereo not shown) [Example 369, N-(1-(5-(5,6-dihydro-4H-pyrrolo[1,2-b]pyrazol-2-yl)-5,6,7,8-tetrahydro-1,5-naphthyridin-2-yl)ethyl)-4-fluorobenzamide] | 6.16
Cc1cc(N2CCCc3nc(C(C)NC(=O)c4ccc(Cl)cc4)ccc32)nc(C(F)(F)F)n1 (stereo not shown) [Example 349, 4-chloro-N-(1-(5-(6-methyl-2-(trifluoromethyl)pyrimidin-4-yl)-5,6,7,8-tetrahydro-1,5-naphthyridin-2-yl)ethyl)benzamide] | 8.01
CC(C(=O)Nc1ccc(F)cc1)c1ccc2c(n1)CCCN2c1ccnc(C2CC2)n1 (stereo not shown) [Example 367, 2-(5-(2-cyclopropylpyrimidin-4-yl)-5,6,7,8-tetrahydro-1,5-naphthyridin-2-yl)-N-(4-fluorophenyl)propanamide] | 8.74
CC(NC(=O)c1ccc(F)cc1)c1ccc2c(n1)CCCN2C(=O)OCCN(C)C (stereo not shown) [Example 329, 2-(dimethylamino)ethyl 6-(1-(4-fluorobenzamido)ethyl)-3,4-dihydro-1,5-naphthyridine-1(2H)-carboxylate] | 5.66
CCCOCCOC(=O)N1CCCc2nc(C(C)NC(=O)c3ccc(F)cc3)ccc21 (stereo not shown) [Example 323, 2-propoxyethyl 6-(1-(4-fluorobenzamido)ethyl)-3,4-dihydro-1,5-naphthyridine-1(2H)-carboxylate] | 8.36
CC(NC(=O)c1ccc(F)cc1)c1ccc2c(n1)CCCN2C(=O)OCCC1CC1(F)F (stereo not shown) [Example 319, 2-(2,2-difluorocyclopropyl)ethyl 6-(1-(4-fluorobenzamido)ethyl)-3,4-dihydro-1,5-naphthyridine-1(2H)-carboxylate] | 8.01
